{"source": "ChEMBL document CHEMBL5723582", "about": "“Data for DCP probe T-10430” (2024)", "settings_in_all_cases": "Compound concentration 1.0 uM", "key": {"[1]": {"biological_target": "Alpha-1D adrenergic receptor (Homo sapiens) (UniProt P25100)", "sequence (P25100 whole entry)": "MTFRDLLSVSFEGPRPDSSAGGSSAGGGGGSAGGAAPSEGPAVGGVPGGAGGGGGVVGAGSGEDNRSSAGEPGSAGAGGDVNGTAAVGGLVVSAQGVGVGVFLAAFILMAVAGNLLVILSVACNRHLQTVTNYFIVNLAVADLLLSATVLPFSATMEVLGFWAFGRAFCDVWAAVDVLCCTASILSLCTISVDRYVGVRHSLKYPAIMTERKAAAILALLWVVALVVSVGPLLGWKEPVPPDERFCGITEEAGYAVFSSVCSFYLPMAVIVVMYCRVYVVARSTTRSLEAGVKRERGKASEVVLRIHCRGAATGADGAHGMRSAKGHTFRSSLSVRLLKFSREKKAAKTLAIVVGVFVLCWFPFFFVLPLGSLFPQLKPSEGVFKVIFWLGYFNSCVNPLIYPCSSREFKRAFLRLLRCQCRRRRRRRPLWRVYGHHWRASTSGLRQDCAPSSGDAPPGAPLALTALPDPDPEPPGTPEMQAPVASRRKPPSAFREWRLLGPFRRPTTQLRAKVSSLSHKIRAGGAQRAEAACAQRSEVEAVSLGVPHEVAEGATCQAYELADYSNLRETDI", "test": "RLU of ADRA1D at 1.0 µM in the […] PRESTO-Tango GPCRome screen"}, "[2]": {"biological_target": "Alpha-2A adrenergic receptor (Homo sapiens) (UniProt P08913)", "test": "RLU of ADRA2A at 1.0 µM in the […] PRESTO-Tango GPCRome screen"}, "[3]": {"biological_target": "Apelin receptor (Homo sapiens) (UniProt P35414)", "test": "RLU of APJ at 1.0 µM in the […] PRESTO-Tango GPCRome screen"}, "[4]": {"biological_target": "Vasopressin V1a receptor (Homo sapiens) (UniProt P37288)", "test": "RLU of AVPR1A at 1.0 µM in the […] PRESTO-Tango GPCRome screen"}, "[5]": {"biological_target": "C-C chemokine receptor type 10 (Homo sapiens) (UniProt P46092)", "test": "RLU of CCR10 at 1.0 µM in the […] PRESTO-Tango GPCRome screen"}, "[6]": {"biological_target": "C-C chemokine receptor type 3 (Homo sapiens) (UniProt P51677)", "test": "RLU of CCR3 at 1.0 µM in the […] PRESTO-Tango GPCRome screen"}, "[7]": {"biological_target": "Adhesion G protein-coupled receptor E5 (Homo sapiens) (UniProt P48960)", "test": "RLU of CD97 at 1.0 µM in the […] PRESTO-Tango GPCRome screen"}, "[8]": {"biological_target": "Corticotropin-releasing factor receptor 2 (Homo sapiens) (UniProt Q13324)", "sequence (Q13324 whole entry)": "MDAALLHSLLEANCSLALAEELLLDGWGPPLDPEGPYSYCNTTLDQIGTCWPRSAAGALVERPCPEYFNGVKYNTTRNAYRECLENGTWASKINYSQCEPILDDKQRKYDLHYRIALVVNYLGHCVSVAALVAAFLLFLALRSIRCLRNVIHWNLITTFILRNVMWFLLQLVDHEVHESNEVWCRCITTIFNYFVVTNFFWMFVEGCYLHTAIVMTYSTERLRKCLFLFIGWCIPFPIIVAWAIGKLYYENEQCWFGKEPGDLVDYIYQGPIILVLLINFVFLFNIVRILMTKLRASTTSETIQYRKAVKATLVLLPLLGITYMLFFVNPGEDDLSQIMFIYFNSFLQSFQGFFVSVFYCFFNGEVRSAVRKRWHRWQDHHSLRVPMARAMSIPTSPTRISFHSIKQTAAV", "test": "RLU of CRHR2 at 1.0 µM in the […] PRESTO-Tango GPCRome screen"}, "[9]": {"biological_target": "Atypical chemokine receptor 3 (Homo sapiens) (UniProt P25106)", "test": "RLU of CXCR7 at 1.0 µM in the […] PRESTO-Tango GPCRome screen"}, "[10]": {"biological_target": "Cysteinyl leukotriene receptor 2 (Homo sapiens) (UniProt Q9NS75)", "test": "RLU of CYSLTR2 at 1.0 µM in the […] PRESTO-Tango GPCRome screen"}, "[11]": {"biological_target": "Free fatty acid receptor 3 (Homo sapiens) (UniProt O14843)", "test": "RLU of FFA3 (GPR41) at 1.0 µM in the […] PRESTO-Tango GPCRome screen"}, "[12]": {"biological_target": "N-formyl peptide receptor 2 (Homo sapiens) (UniProt P25090)", "sequence (P25090 whole entry)": "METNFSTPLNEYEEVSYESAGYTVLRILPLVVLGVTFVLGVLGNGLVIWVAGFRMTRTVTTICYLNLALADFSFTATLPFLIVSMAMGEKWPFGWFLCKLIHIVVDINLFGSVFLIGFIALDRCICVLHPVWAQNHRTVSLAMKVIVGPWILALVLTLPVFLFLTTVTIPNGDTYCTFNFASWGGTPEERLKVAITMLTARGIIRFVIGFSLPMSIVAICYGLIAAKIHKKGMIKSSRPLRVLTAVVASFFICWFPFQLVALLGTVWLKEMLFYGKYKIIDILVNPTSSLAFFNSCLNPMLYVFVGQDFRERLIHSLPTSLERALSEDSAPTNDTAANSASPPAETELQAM", "test": "RLU of FPR2 at 1.0 µM in the […] PRESTO-Tango GPCRome screen"}, "[13]": {"biological_target": "Galanin receptor type 3 (Homo sapiens) (UniProt O60755)", "test": "RLU of GAL3 at 1.0 µM in the […] PRESTO-Tango GPCRome screen"}, "[14]": {"biological_target": "G-protein coupled receptor 143 (Homo sapiens) (UniProt P51810)", "sequence (P51810 whole entry)": "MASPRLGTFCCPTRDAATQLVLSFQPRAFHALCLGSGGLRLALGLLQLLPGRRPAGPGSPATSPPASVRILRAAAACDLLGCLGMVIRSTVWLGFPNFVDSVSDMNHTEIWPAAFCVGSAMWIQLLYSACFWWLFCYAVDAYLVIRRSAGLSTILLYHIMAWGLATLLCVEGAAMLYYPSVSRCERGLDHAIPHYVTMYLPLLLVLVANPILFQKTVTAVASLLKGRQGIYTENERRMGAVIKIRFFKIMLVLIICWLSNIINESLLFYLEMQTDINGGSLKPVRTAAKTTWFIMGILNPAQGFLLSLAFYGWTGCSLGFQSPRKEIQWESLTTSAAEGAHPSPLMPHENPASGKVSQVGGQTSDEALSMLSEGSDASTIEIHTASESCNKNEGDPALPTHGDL", "test": "RLU of GPR143 at 1.0 µM in the […] PRESTO-Tango GPCRome screen"}, "[15]": {"biological_target": "Probable G-protein coupled receptor 149 (Homo sapiens) (UniProt Q86SP6)", "sequence (Q86SP6 whole entry)": "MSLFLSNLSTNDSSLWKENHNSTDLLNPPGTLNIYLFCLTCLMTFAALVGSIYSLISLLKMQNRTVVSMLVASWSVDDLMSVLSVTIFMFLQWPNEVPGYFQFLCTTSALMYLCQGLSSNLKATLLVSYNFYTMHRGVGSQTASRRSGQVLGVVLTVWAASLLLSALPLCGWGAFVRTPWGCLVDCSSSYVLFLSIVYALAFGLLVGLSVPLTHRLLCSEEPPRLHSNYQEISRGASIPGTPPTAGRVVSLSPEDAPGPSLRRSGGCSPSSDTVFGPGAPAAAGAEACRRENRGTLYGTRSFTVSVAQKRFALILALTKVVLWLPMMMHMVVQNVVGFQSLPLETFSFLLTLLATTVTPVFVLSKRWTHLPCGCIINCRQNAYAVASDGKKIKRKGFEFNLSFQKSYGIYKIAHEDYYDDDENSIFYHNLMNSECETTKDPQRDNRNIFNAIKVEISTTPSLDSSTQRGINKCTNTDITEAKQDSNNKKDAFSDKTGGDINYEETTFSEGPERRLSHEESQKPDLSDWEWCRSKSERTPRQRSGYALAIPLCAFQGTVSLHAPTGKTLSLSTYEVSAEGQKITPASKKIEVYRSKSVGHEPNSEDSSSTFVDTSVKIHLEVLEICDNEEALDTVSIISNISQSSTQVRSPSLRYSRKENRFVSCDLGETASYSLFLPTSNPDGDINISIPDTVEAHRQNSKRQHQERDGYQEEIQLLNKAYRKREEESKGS", "test": "RLU of GPR149 at 1.0 µM in the […] PRESTO-Tango GPCRome screen"}, "[16]": {"biological_target": "G-protein coupled receptor 15 (Homo sapiens) (UniProt P49685)", "sequence (P49685 whole entry)": "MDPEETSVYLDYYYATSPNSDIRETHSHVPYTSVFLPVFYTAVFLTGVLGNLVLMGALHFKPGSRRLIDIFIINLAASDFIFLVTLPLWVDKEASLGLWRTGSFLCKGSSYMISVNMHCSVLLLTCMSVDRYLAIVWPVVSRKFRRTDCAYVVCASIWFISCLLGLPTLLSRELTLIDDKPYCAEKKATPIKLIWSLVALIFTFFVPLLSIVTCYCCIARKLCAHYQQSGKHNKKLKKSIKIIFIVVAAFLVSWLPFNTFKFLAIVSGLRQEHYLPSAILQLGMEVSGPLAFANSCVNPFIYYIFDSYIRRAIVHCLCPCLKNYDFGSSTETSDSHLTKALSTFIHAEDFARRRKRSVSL", "test": "RLU of GPR15 at 1.0 µM in the […] PRESTO-Tango GPCRome screen"}, "[17]": {"biological_target": "G-protein coupled receptor 151 (Homo sapiens) (UniProt Q8TDV0)", "test": "RLU of GPR151 at 1.0 µM in the […] PRESTO-Tango GPCRome screen"}, "[18]": {"biological_target": "Probable G-protein coupled receptor 152 (Homo sapiens) (UniProt Q8TDT2)", "sequence (Q8TDT2 whole entry)": "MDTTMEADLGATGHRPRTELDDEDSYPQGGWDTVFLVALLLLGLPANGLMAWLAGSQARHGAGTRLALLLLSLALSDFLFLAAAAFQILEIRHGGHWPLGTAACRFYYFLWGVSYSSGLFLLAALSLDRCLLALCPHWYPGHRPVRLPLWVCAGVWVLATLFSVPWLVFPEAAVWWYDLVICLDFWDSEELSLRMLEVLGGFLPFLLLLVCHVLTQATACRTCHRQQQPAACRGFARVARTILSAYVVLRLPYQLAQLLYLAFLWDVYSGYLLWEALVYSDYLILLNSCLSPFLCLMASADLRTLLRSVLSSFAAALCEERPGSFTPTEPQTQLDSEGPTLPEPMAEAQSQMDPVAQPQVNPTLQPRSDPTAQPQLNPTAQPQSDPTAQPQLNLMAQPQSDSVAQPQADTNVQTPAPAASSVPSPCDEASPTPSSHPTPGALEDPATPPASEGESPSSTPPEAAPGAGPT", "test": "RLU of GPR152 at 1.0 µM in the […] PRESTO-Tango GPCRome screen"}, "[19]": {"biological_target": "Probable G-protein coupled receptor 160 (Homo sapiens) (UniProt Q9UJ42)", "test": "RLU of GPR160 at 1.0 µM in the […] PRESTO-Tango GPCRome screen"}, "[20]": {"biological_target": "Probable G-protein coupled receptor 27 (Homo sapiens) (UniProt Q9NS67)", "test": "RLU of GPR27 at 1.0 µM in the […] PRESTO-Tango GPCRome screen"}, "[21]": {"biological_target": "G-protein coupled receptor 35 (Homo sapiens) (UniProt Q9HC97)", "test": "RLU of GPR35 at 1.0 µM in the […] PRESTO-Tango GPCRome screen"}, "[22]": {"biological_target": "G-protein coupled receptor 37-like 1 (Homo sapiens) (UniProt O60883)", "test": "RLU of GPR37L1 at 1.0 µM in the […] PRESTO-Tango GPCRome screen"}, "[23]": {"biological_target": "G-protein coupled receptor 68 (Homo sapiens) (UniProt Q15743)", "test": "RLU of GPR68 at 1.0 µM in the […] PRESTO-Tango GPCRome screen"}, "[24]": {"biological_target": "Gastrin-releasing peptide receptor (Homo sapiens) (UniProt P30550)", "sequence (P30550 whole entry, looked up)": "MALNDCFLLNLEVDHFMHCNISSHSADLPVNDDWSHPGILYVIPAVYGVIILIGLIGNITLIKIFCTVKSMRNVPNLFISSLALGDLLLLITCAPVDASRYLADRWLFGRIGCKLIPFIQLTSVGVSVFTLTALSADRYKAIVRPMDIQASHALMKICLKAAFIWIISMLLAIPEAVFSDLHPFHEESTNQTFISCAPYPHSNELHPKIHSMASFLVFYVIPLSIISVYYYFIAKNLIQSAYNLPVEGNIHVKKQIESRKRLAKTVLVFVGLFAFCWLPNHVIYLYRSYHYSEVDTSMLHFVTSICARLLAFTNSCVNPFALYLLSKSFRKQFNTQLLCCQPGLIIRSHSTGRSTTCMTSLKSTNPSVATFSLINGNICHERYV", "test": "RLU of GRPR at 1.0 µM in the Aequorin PRESTO-Tango GPCRome screen"}, "[25]": {"biological_target": "5-hydroxytryptamine receptor 2A (Homo sapiens) (UniProt P28223)", "sequence (P28223 whole entry)": "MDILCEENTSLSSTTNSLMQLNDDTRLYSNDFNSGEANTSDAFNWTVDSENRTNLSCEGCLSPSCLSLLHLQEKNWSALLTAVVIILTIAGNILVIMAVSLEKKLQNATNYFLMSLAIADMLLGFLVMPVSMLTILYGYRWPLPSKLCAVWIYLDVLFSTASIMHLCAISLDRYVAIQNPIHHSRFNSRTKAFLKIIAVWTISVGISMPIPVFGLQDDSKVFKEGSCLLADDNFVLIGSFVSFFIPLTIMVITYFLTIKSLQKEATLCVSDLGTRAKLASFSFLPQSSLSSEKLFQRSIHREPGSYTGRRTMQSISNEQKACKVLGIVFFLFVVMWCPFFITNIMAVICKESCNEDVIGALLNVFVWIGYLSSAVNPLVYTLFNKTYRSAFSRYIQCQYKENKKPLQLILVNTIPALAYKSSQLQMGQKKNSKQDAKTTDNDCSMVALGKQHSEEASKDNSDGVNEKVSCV", "test": "RLU of HTR2A at 1.0 µM in the […] PRESTO-Tango GPCRome screen"}, "[26]": {"biological_target": "Mas-related G-protein coupled receptor MRG (Homo sapiens) (UniProt P35410)", "test": "RLU of MAS1L at 1.0 µM in the […] PRESTO-Tango GPCRome screen"}, "Opsin-3 (Homo sapiens)": {"biological_target": "Opsin-3 (Homo sapiens) (UniProt Q9H1Y3)", "test": "RLU of OPN3 at 1.0 µM in the […] PRESTO-Tango GPCRome screen"}, "[27]": {"biological_target": "Oxoeicosanoid receptor 1 (Homo sapiens) (UniProt Q8TDS5)", "test": "RLU of OXER1 at 1.0 µM in the […] PRESTO-Tango GPCRome screen"}, "[28]": {"biological_target": "P2Y purinoceptor 6 (Homo sapiens) (UniProt Q15077)", "test": "RLU of P2RY6 at 1.0 µM in the […] PRESTO-Tango GPCRome screen"}, "[29]": {"biological_target": "Prokineticin receptor 2 (Homo sapiens) (UniProt Q8NFJ6)", "test": "RLU of PK2 at 1.0 µM in the […] PRESTO-Tango GPCRome screen"}, "[30]": {"biological_target": "Prostaglandin E2 receptor EP3 subtype (Homo sapiens) (UniProt P43115)", "sequence (P43115 whole entry)": "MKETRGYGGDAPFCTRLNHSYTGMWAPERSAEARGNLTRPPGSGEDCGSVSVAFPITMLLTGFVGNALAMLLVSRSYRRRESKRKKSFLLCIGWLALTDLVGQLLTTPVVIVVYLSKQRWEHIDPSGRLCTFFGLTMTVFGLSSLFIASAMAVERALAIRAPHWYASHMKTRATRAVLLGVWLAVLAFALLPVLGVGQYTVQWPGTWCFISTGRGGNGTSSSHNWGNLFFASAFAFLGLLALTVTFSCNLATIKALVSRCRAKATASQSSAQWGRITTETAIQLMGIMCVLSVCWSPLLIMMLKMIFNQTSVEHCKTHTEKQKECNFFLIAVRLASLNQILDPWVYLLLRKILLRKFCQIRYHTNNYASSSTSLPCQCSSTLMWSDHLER", "test": "RLU of PTGER3 at 1.0 µM in the […] PRESTO-Tango GPCRome screen"}, "[31]": {"biological_target": "Parathyroid hormone/parathyroid hormone-related peptide receptor (Homo sapiens) (UniProt Q03431)", "test": "RLU of PTH1R at 1.0 µM in the […] PRESTO-Tango GPCRome screen"}, "[32]": {"biological_target": "Sphingosine 1-phosphate receptor 5 (Homo sapiens) (UniProt Q9H228)", "test": "RLU of S1PR5 at 1.0 µM in the […] PRESTO-Tango GPCRome screen"}, "[33]": {"biological_target": "Thromboxane A2 receptor (Homo sapiens) (UniProt P21731)", "sequence (P21731 whole entry)": "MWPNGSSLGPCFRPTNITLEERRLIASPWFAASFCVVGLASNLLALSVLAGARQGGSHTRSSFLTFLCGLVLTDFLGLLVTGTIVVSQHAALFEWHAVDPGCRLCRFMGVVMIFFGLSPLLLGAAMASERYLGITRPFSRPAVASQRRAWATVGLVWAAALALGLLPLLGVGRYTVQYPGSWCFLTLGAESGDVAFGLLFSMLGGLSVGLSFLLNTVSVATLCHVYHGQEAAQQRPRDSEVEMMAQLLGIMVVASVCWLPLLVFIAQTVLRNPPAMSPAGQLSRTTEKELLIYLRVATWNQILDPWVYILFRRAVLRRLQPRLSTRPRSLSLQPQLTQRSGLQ", "test": "RLU of TBXA2R at 1.0 µM in the […] PRESTO-Tango GPCRome screen"}, "[34]": {"biological_target": "Vasoactive intestinal polypeptide receptor 2 (Homo sapiens) (UniProt P41587)", "test": "RLU of VIPR2 at 1.0 µM in the […] PRESTO-Tango GPCRome screen"}}}
{"compound": "CCCCC(=O)N1CC2(C1)CN(c1ccccc1-c1nnn[nH]1)C2", "values": [{"measurement": "RLU", "setting": "[1]", "value": 2940}, {"measurement": "RLU", "setting": "[2]", "value": 10100}, {"measurement": "RLU", "setting": "[3]", "value": 5300}, {"measurement": "RLU", "setting": "[4]", "value": 5670}, {"measurement": "RLU", "setting": "[5]", "value": 464}, {"measurement": "RLU", "setting": "[6]", "value": 2420}, {"measurement": "RLU", "setting": "[7]", "value": -895}, {"measurement": "RLU", "setting": "[8]", "value": 410}, {"measurement": "RLU", "setting": "[9]", "value": -7340}, {"measurement": "RLU", "setting": "[10]", "value": -3190}, {"measurement": "RLU", "setting": "[11]", "value": 1880}, {"measurement": "RLU", "setting": "[12]", "value": 31.8}, {"measurement": "RLU", "setting": "[13]", "value": -1500}, {"measurement": "RLU", "setting": "[14]", "value": -2070}, {"measurement": "RLU", "setting": "[15]", "value": -2140}, {"measurement": "RLU", "setting": "[16]", "value": 1710}, {"measurement": "RLU", "setting": "[17]", "value": 12900}, {"measurement": "RLU", "setting": "[18]", "value": -70}, {"measurement": "RLU", "setting": "[19]", "value": 1900}, {"measurement": "RLU", "setting": "[20]", "value": -2080}, {"measurement": "RLU", "setting": "[21]", "value": 2600}, {"measurement": "RLU", "setting": "[22]", "value": 153000}, {"measurement": "RLU", "setting": "[23]", "value": -1790}, {"measurement": "RLU", "setting": "[24]", "value": -1250}, {"measurement": "RLU", "setting": "[25]", "value": -2870}, {"measurement": "RLU", "setting": "[26]", "value": 2610}, {"measurement": "RLU", "setting": "Opsin-3 (Homo sapiens)", "value": 338}, {"measurement": "RLU", "setting": "[27]", "value": -153}, {"measurement": "RLU", "setting": "[28]", "value": -7240}, {"measurement": "RLU", "setting": "[29]", "value": -566}, {"measurement": "RLU", "setting": "[30]", "value": 83.2}, {"measurement": "RLU", "setting": "[31]", "value": 13.4}, {"measurement": "RLU", "setting": "[32]", "value": 2920}, {"measurement": "RLU", "setting": "[33]", "value": 233}, {"measurement": "RLU", "setting": "[34]", "value": -824}]}
